How the values were obtained:
DAOY:NICD2 [1] = experiment: Flow cytometric analysis of CD133-positive fraction; assay type: cell-based; details: DAOY:NICD2 expressing truncated Notch2; 2 μM
Description: Consistent with the hypothesis that Notch is important in CSC, gain or loss of pathway activity modulated the size of the CD133-expressing stem-like subpopulation (FIG. 4B). This fraction was elevated to 17.2% in DAOY cells stably transfected with a plasmid encoding the constitutively active Notch2 intracellular domain (DAOY:NICD2). In contrast, Notch pathway inhibition using GSI-18, a potent sulfonamide GSI (21), reduced the CD133-positive stem-like fraction […] to 3.3% (p<0.01). […] 2 μM GSI-18 was used in these experiments, as both mRNA and protein levels of the Notch pathway target Hes1 are reduced over 70% after 48 hours by this concentration of the drug (FIG. 4E).
The DAOY, PFSK, D283 and D425 Med cell lines were obtained from the American Type Culture Collection. The low-passage MB line MB2 was derived from a tumor resected at Johns Hopkins Hospital. […] Cell mass was measured using CellTITER assays according to the manufacturer's instructions (Promega, Madison, Wis.). Cell number and viability were assessed using the Guava PCA and Viacount reagent according to instructions (Guava Technologies, Heyward, Calif.). Soft agar assays were performed as previously described (15) and scored either manually after 4 weeks or using as automated reader after 6 weeks. […] Soft agar assays were performed as previously described, with colonies counted using an automated reader (15). […]

D283Med [2] = experiment: Side population (Hoechst 33342 excretion) flow cytometry; assay type: cell-based; details: D283Med; 2 μM GSI-18 or verapamil
Description: (§1) The ability to excrete Hoechst dye, which defines SP (also known as “side population”) in flow cytometric analyses, is another marker of tumor-initiating CSC in the blood and brain (7, 8, 20). SP was therefore analyzed to obtain a second measure of the effects of Notch on CSC.
(§2) Flow cytometric analysis of S-phase fraction and cell cycle kinetics was performed using a FACSCalibur (Becton Dickinson, San Jose, Calif.) with CELL Quest, version 3.3 software (15). CD133 studies were performed using the same instrument, with antibodies from Miltenyi (Miltenyi Biotec, Auburn, Calif.) according to the manufacturer's instructions. […] Prior to analysis, cells were washed and resuspended in 2 μg/ml PI (Sigma, St. Louis, Mo.). […] To ensure proper identification of SP cells, cells were incubated as above with the addition of 50 μM verapamil (Sigma).

D425Med [3] = experiment: as above; assay type: cell-based; details: D425Med; 2 μM GSI-18 or verapamil
Description: as §1, §2

DAOY:NICD2 [4] = experiment: as above; assay type: cell-based; details: 2 μM GSI-18 or verapamil
Description: as §1, §2

DAOY [5] = experiment: as above; assay type: cell-based; details: DAOY; 2 μM; untreated SP 1.9%
Description: as §1, §2

DAOY [6] = experiment: Nestin immunocytochemistry, strongly nestin-positive fraction; assay type: cell-based; details: 2 μM, 48 hours
DAOY [7] = experiment: Double immunolabeling nestin / Ki67 (proliferation); assay type: cell-based; details: 2 μM, 48 hours
D283Med [8] = experiment: Number of live cells (Guava Viacount); assay type: cell-based; details: 2 μM
Description: (§3) The fact that cultures grew 2-fold or more during the same time period that side population was essentially ablated by Notch pathway blockade provides additional support for the notion that medulloblatoma CSC are especially vulnerable to Notch signaling inhibition.
(§4) The DAOY, PFSK, D283 and D425 Med cell lines were obtained from the American Type Culture Collection. The low-passage MB line MB2 was derived from a tumor resected at Johns Hopkins Hospital. For treatment studies, cell were plated and allowed to grow overnight in MEM (Invitrogen, Carlsbad, Calif.) containing 10% FBS, then media was replaced the next morning with low serum (0.5% FBS) MEM containing GSI dissolved in DMSO. RNA and protein extractions, and all cell-based assays, were performed 48 hours after drug application unless otherwise noted. All experiments with error bars were performed in triplicate and shown as mean values with standard error unless otherwise noted. Cell mass was measured using CellTITER assays according to the manufacturer's instructions (Promega, Madison, Wis.). Cell number and viability were assessed using the Guava PCA and Viacount reagent according to instructions (Guava Technologies, Heyward, Calif.). Soft agar assays were performed as previously described (15) and scored either manually after 4 weeks or using as automated reader after 6 weeks. The constitutively active Akt stable cell line was made by transfecting DAOY cells with myristolated Akt (pCB6-IMy-Akt-HA) or control (pCB6+) plasmids (kind gifts from Susan J. Baker) and selecting and maintaining clones in 0.8 mg/ml G418. Soft agar assays were performed as previously described, with colonies counted using an automated reader (15).

D425Med [9] = experiment: Number of live cells (Guava Viacount); assay type: cell-based; details: 2 μM
Description: as §3, §4

DAOY [10] = experiment: Number of live cells (Guava Viacount); assay type: cell-based; details: 2 μM
Description: as §3, §4

PFSK = experiment: Number of live cells (Guava Viacount); assay type: cell-based; details: 2 μM
Description: as §3, §4

[11] = Behavioral or physical changes in treated animals; assay type: in vivo, mice; details: 0.5 mg i.p. for five consecutive days
Description: As a test of the requirement for ongoing Notch activity during tumor engraftment, animals were treated with GSI-18 after subcutaneously injecting DAOY and DAOY:NICD2 cells into their left and right flanks. A treatment group of four mice received intraperitoneal injections containing 0.5 mg GSI-18 in DMSO for five consecutive days, beginning on the day of xenograft initiation, while the control group was treated with vehicle alone.

GBM neurospheres = experiment: Proliferation (Ki67 index) in the Nestin positive population of GBM neurospheres; assay type: cell-based
Source text: It has been shown that the Notch signaling pathway regulates normal stem cells in the Central Neural System (CNS), and that GBMs contain cancer stem cells (CSCs) with higher Notch activity (Cancer Research, 64:7011-21, 2004; Cancer Cell, 9:391-403, 2006). However, it has not been known if Notch pathway blockade could target CSCs in GBM. […] In the present study, we used GBM neurospheres to examine the effects of Notch pathway blockade in GBM. […] Furthermore, overexpression of an active form of Notch2 (NICD2) increases tumor growth in vitro.

## O=S(=O)(NC1C2CCC1Cc1ccccc1C2)c1cccs1 (stereo not drawn) [GSI-18, [11-endo]-N-(5,6,7,8,9,10-hexahydro-6,9-methanobenzo[α][8]annulen-11-yl)-thiophene-2-sulfonamide]
DAOY:NICD2 [1]
  sensitivity of CD133-positive fraction to the inhibitor: insensitive to GSI-18
D283Med [2]
  side population: ablated
D425Med [3]
  side population: ablated
DAOY:NICD2 [4]
  side population under NICD2 expression: protected the SP from GSI-18 exposure
DAOY [5]
  remaining cells negative for Hoechst dye (side population): 0.01%
DAOY [6]; p<0.01
  fold reduction of strongly nestin-positive fraction: 4 fold
DAOY [6]; untreated 10%
  strongly nestin-positive fraction after treatment: 2.4%
DAOY [7]
  fraction of Ki67 positive cells in nestin-negative subpopulation: changed only slightly
  proliferation (Ki67-positive cells) in nestin-positive subpopulation: significant reduction in the proliferation
D283Med [8]
  growth in the number of live cells: reduced as compared to vehicle treated controls
D425Med [9]
  growth in the number of live cells: reduced as compared to vehicle treated controls
DAOY [10]
  growth in the number of live cells: reduced as compared to vehicle treated controls
PFSK
  growth in the number of live cells: reduced as compared to vehicle treated controls
[11]
  behavioral or physical changes: No behavioral or physical changes were noted
GBM neurospheres
  proliferation (Ki67 index) in the Nestin positive population: decrease in proliferation (Ki67 index)

From patent publication US20140227173A1, “CANCER TREATMENT WITH GAMMA-SECRETASE INHIBITORS” (The Johns Hopkins University, priority 2006, published 2014)
